Experimental data: US7528132B2, “Kinase inhibitors” (Schering Corporation, priority 2005, dated 2009)

Each compound was assayed against T1, Akt1 (Homo sapiens, UniProt P31749) (assay: Akt1 kinase assay (33P phosphorylation of biotinylated peptide, Flash plates)). Settings: read-out: IC50 (AKT1 inhibition).
T1 construct: made in house; host or cells: Sf9 insect cells (baculovirus, pBlueBacHis2B)
Format: biochemical
Excerpt: The assay described below measures the phosphorylation of a biotinylated peptide by active recombinant Akt1 and other kinase isoforms. The biotinylated peptide contains a consensus sequence derived from Akt substrate Gsk3 (Glycogen synthase kinase 3). The ^33P-labeled peptide substrate was captured by streptavidin-coated Flash plates.
Active recombinant Akt1 was expressed in Sf9 insect cells and purified as described by Kumar et al., Biochim. Biophys. Acta. Jun. 15, 2001, 1526(3), 257-268. Biotinylated peptide of the sequence Bio-ahx-RPRAASF was purchased from Syn Pep (Dublin, Calif., USA).
Cloning and Expression of Human Akt1 Sf9 Cells
Human Akt1 cDNA was amplified from a marathon-ready human lung cDNA library (Clonetech) using nested oligo primers as described below. The first round of amplification was carried out using the following primers; Akt1F1 ([…]) and Akt1R1 (TCCATC […]) and for the second round amplification, the primers of the following sequence were used; Akt1F2 (GGATCCTCGG […]) and AKT1R2 (GGTACCATCGTC […]). The PCR product was subcloned into pCRScript plasmid as a BamHI/KpnI fragment and the sequence of the cDNA was confirmed by DNA sequencing. This plasmid was used as a template for reamplification of Akt1 using appropriate primers for subcloning into pBlueBaHis2B into BamH1/EcoRI sites to generate an in frame fusion to (His)6 tag and an anti-Xpress antibody epitope tag at the N-terminus. This construct was sequenced to verify the junction sequences and used for generating a recombinant baculovirus. Growth of the recombinant virus, amplification and determination of viral titer were carried out according to the instructions from the manufacturer (InVitrogen, CA).
Purification of Akt1 from Sf9 Cells
Viral stocks were used to infect large scale Sf9 cells at a multiplicity of infection (MOI) of 2.5. Cells were maintained at 27° C. for 60 h and okadaic acid was added to the cultures to a concentration of 50 nM. Cells were harvested 4 h hours later by centrifugation at 1200 rpm for 30 min followed by freezing at −80° C. until further use. All purification steps were carried out at 4° C. Whole cell pellets were suspended in buffer A (20 mM sodium phosphate buffer pH 7.8, 500 mM NaCl, 1 mM sodium vanadate, 5 mM sodium fluoride, 40 mM β-glycerophosphate, 10 mM imidazole and protease inhibitor cocktail) and lysed using a microfluidizer. The cell extract was centrifuged at 16,000×g for 10 min to remove the debris and directly loaded onto Ni-NTA Superflow resin using a FPLC pump operated at 1 ml/min. The column was washed once with buffer A, once with wash buffer B (20 mM sodium phosphate pH 6.0, 1 mM sodium vanadate, 5 mM sodium fluoride and protease cocktail) and once with wash buffer B containing 0.05% Tween-20 followed by washing with buffer A until OD260 returned to basal level. Proteins were eluted with buffer A containing 200 mM imidazole. Fractions were analyzed by electrophoresis on 10% denaturing polyacrylamide gels and fractions containing 85% pure protein band at 60 KDa were pooled and dialyzed against buffer C (20 mM Tris-HCl pH 7.5, 0.5 mM EDTA,-2 mM DTT, 145 mM NaCl, 0.1 mM sodium vanadate, 5 mM sodium fluoride, 10 mM, β-glycerophosphate and 20% glycerol). Purified protein was stored as aliquots at −80° C. Protein concentrations were determined using BCA protein assay reagent A (Catalog #23228). To examine the identity of the proteins, 2 μg of purified protein was electrophoresed on SDS-polyacrylamide gels and stained with coomassie blue dye or transferred to nitrocellulose membrane and probed with anti-Akt and anti-phospho-specific Akt antibodies using enhanced chemiluminescence (ECL) reagent according to the protocol described by the manufacturer (Amersham).
The kinase assay was performed in 96 well plates at room temperature. Assay solutions and plates were preincubated at room temperature for 5 min. […]

T1 sequence (P31749 whole entry): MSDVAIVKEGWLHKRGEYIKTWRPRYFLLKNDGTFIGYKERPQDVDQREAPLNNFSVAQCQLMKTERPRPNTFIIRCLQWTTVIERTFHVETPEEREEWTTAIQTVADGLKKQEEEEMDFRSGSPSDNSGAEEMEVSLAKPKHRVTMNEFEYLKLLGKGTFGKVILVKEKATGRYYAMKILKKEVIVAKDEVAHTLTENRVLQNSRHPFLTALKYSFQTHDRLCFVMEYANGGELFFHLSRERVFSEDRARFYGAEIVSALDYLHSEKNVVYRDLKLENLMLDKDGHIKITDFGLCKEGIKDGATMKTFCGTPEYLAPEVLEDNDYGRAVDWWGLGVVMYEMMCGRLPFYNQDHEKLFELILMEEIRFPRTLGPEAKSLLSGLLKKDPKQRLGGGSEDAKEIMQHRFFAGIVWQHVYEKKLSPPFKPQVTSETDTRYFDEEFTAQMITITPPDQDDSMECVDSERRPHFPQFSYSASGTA

IC50	SMILES
0.00136 µM	Cc1n[nH]c2ccc(-c3nnc(CCc4ccccc4)c(N4CCN[C@@H](C(C)C)C4)n3)cc12 [Compound 93, 5-[(S)-3-isopropylpiperazin-1-yl]-3-(3-methylindazol-5-yl)-6-phenethyl-[1,2,4]triazine]

Same assay, conditions: read-out: IC50 rating (AKT1 inhibition)

IC50	SMILES
> 1 µM	c1ccc(C[C@H]2CN(c3cnnc(-c4ccc5[nH]nc(-c6ccccc6)c5c4)n3)CCN2)cc1 [Compound 70, 5-[(S)-3-benzylpiperazin-1-yl]-3-(3-phenylindazol-5-yl)-[1,2,4]triazine]
0.1 to 1 µM	c1ccc(-c2n[nH]c3ccc(-c4nncc(N5CCNCC5)n4)cc23)cc1 [Compound 71, 3-(3-phenylindazol-5-yl)-5-piperazin-1-yl-[1,2,4]triazine]
> 1 µM	CC(C)C[C@H]1CN(c2cnnc(-c3ccc4[nH]nc(-c5ccccc5)c4c3)n2)CCN1 [Compound 72, 5-[(S)-3-isobutylpiperazin-1-yl]-3-(3-phenylindazol-5-yl)-[1,2,4]triazine]
0.1 to 1 µM	Cc1n[nH]c2ccc(-c3nncc(N4CCN[C@@H](C(C)(C)C)C4)n3)cc12 [Compound 73, 3-(3-methylindazol-5-yl)-5-[(S)-3-tert-butylpiperazin-1-yl]-[1,2,4]triazine]
0.1 to 1 µM	Cc1ccccc1CC1CN(c2cnnc(-c3ccc4[nH]ncc4c3)n2)CCN1 (centres unmarked) [Compound 74, 3-indazol-5-yl-5-[3-(2-methylbenzyl)piperazin-1-yl]-[1,2,4]triazine]
> 1 µM	c1cc2[nH]nc(C3CC3)c2cc1-c1nncc(N2CCNCC2)n1 [Compound 75, 3-(3-cyclopropylindazol-5-yl)-5-piperazin-1-yl-[1,2,4]triazine]
0.1 to 1 µM	CC(C)C[C@H]1CN(c2cnnc(-c3ccc4[nH]nc(C5CC5)c4c3)n2)CCN1 [Compound 76, 3-(3-cyclopropylindazol-5-yl)-5-[(S)-3-isobutylpiperazin-1-yl]-[1,2,4]triazine]
0.1 to 1 µM	c1ccc(C[C@H]2CN(c3cnnc(-c4ccc5[nH]nc(C6CC6)c5c4)n3)CCN2)cc1 [Compound 77, 5-[(S)-3-benzylpiperazin-1-yl]-3-(3-cyclopropylindazol-5-yl)-[1,2,4]triazine]
> 1 µM	CCc1n[nH]c2ccc(-c3nncc(N4CCNCC4)n3)cc12 [Compound 78, 3-(3-ethylindazol-5-yl)-5-piperazin-1-yl-[1,2,4]triazine]
0.1 to 1 µM	CCc1n[nH]c2ccc(-c3nncc(N4CCN[C@@H](CC(C)C)C4)n3)cc12 [Compound 79, 3-(3-ethylindazol-5-yl)-5-[(S)-3-isobutylpiperazin-1-yl]-[1,2,4]triazine]
< 0.1 µM	CCc1n[nH]c2ccc(-c3nncc(N4CCN[C@@H](Cc5ccccc5)C4)n3)cc12 [Compound 80, 5-[(S)-3-benzylpiperazin-1-yl]-3-(3-ethylindazol-5-yl)-[1,2,4]triazine]
< 0.1 µM	Cc1n[nH]c2ccc(-c3nnc(N)c(N4CCN[C@@H](C(C)(C)C)C4)n3)cc12 [Compound 81, 6-amino-3-(3-methylindazol-5-yl)-5-[(S)-3-tert-butylpiperazin-1-yl]-[1,2,4]triazine]
0.1 to 1 µM	Cc1n[nH]c2ccc(-c3nnc(N)c(N4CCNC5(CCCCC5)C4)n3)cc12 [Compound 82, 6-amino-5-(1,4-diaza-spiro[5.5]undec-4-yl)-3-(3-methylindazol-5-yl)-[1,2,4]triazine]
0.1 to 1 µM	Cc1n[nH]c2ccc(-c3nnc(N)c(N4CCC(N)C4)n3)cc12 (centres unmarked) [Compound 83, 6-amino-5-(3-aminopyrrolidin-1-yl)-3-(3-methylindazol-5-yl)-[1,2,4]triazine]
0.1 to 1 µM	CNC1CCN(c2nc(-c3ccc4[nH]nc(C)c4c3)nnc2N)C1 (centres unmarked) [Compound 84, 6-amino-5-(3-methylaminopyrrolidin-1-yl)-3-(3-methylindazol-5-yl)-[1,2,4]triazine]
0.1 to 1 µM	Cc1n[nH]c2ccc(-c3nnc(N)c(N4CCNC5(CCCC5)C4)n3)cc12 [Compound 85, 6-amino-5-(6,9-diaza-spiro[4.5]dec-9-yl)-3-(3-methylindazol-5-yl)-[1,2,4]triazine]
< 0.1 µM	Cc1n[nH]c2ccc(-c3nnc(CCc4ccccc4)c(N4CCNCC4)n3)cc12 [Compound 92, 3-(3-methylindazol-5-yl)-6-phenethyl-5-(piperazin-1-yl)-[1,2,4]triazine]
< 0.1 µM	Cc1n[nH]c2ccc(-c3nnc(CCc4ccccc4)c(N4CCN[C@@H](C(C)C)C4)n3)cc12 [Compound 93, 5-[(S)-3-isopropylpiperazin-1-yl]-3-(3-methylindazol-5-yl)-6-phenethyl-[1,2,4]triazine]
< 0.1 µM	CCC[C@H]1CN(c2nc(-c3ccc4[nH]nc(C)c4c3)nnc2CCc2ccccc2)CCN1 [Compound 94, 3-(3-methylindazol-5-yl)-6-phenethyl-5-[(S)-3-propylpiperazin-1-yl]-[1,2,4]triazine]
